The source of these data is ChEMBL document CHEMBL3286185, “Constituents of the roots of Clausena lansium and their potential anti-inflammatory activity” (J Nat Prod, 2014).

Bounds are passed on as bounds.

Experiment [1] is described as follows: Antiinflammatory activity in human neutrophil assessed as inhibition of FMLP/CB-induced elastase release for 5 mins. Format: functional, cell-based.
The nature of experiment [2]: Antiinflammatory activity in human neutrophil assessed as inhibition of FMLP/CB-induced superoxide anion generation pretreated for 5 mins by spectrophotometry. The experiment is classed as functional, cell-based.

In general, IC50 refers to the midpoint of a concentration-inhibition curve. Regarding `CC(C)=CCC/C(C)=C/COc1c2occc2cc2ccc(=O)oc12`, the half-maximal inhibitory concentration (IC50) in experiment [1] is over 10 µM; in experiment [2], 1.9 µM.
For `CC(C)=CCc1c(C=O)cc(O)c2[nH]c3ccccc3c12` the same measures were 2 µM and over 10 µM.
In the case of `C/C(=C\COc1c2occc2cc2ccc(=O)oc12)C[C@H]1C[C@H](C)C(=O)O1`, the figures for the IC50 in experiment [1] and in experiment [2] were over 10 µM and 8.4 µM, respectively.
For `CC1=C[C@H](C/C(C)=C\COc2c3occc3cc3ccc(=O)oc23)OC1=O` the same measures were over 10 µM and 6.1 µM.
For `COC(=O)c1ccc2[nH]c3ccccc3c2c1` the same measures were over 10 µM and 4.3 µM.
For `COc1ccc2[nH]c3cc(OC)c(C=O)cc3c2c1` [GLYCOZOLIDAL] the same measures were over 10 µM and 4.6 µM.
Consider `CC(C)=CCOc1c2ccoc2cc2oc(=O)ccc12` [ISOIMPERATORIN], for which the values for the IC50 in experiment [1] and in experiment [2] were over 10 µM and 4.2 µM, respectively.
For `O=c1cc(N2CCOCC2)oc2c(-c3ccccc3)cccc12` [LY-294002] the same measures were 1.5 µM and 1 µM.
For `COc1cc(C=O)cc2c1[nH]c1ccccc12` [MURRAYANINE], in that order: 3.9 µM and 3.5 µM.
For `O=Cc1cc(O)c2[nH]c3ccccc3c2c1` [O-DEMETHYLMURRAYANINE], the 50% inhibitory concentration (IC50) in experiment [1] was 6.9 µM; in experiment [2] it was 3.5 µM.
For `CC(C)=CCc1c(O)ccc2ccc(=O)oc12` [OSTHENOL], in that order: over 10 µM and 2.6 µM.
For `CC(C)=CCOc1c2occc2cc2ccc(=O)oc12` [PENTOSALEN], the half-inhibitory concentration (IC50) was over 10 µM in experiment [1] and 3.5 µM in experiment [2].
